One may read the GI50 as the concentration at which growth is held to half of that of the control.

Several values for one entry are separate records, joined by “and”; a condition that tells them apart may be missing. Equal values may be shown once.

Holding throughout (type): cell-based, human
Experiment [1] deals with ADDP ovarian (cisplatin-resistant A2780 clone). The experiment can be described thus: MTT growth inhibition assay, 72 h. The note with it: for GI50: MTT, 72 h; for fold more active than cisplatin: ADDP ovarian cell line.
The subject of experiment [2] is H460 lung. Description: MTT growth inhibition assay, 72 h. In general terms: Tetrazolium dyes change colour on reduction, which living cells bring about.
Experiment [3] deals with SJ-G2 glioblastoma. The experiment can be described thus: MTT growth inhibition assay, 72 h.
In experiment [4] the test system is MIA pancreas. Description: MTT growth inhibition assay, 72 h. The conditions noted are these: for fold more active than CLB: MIA pancreas cell line; for GI50: MTT, 72 h.
In experiment [5] the test system is panel of cell lines. Description: MTT growth inhibition assay, 72 h, over the cell line panel. The conditions noted are these: average over all cell lines tested; read-out: Average GI50 Values.
Experiment [6] relates to A431 skin. The experiment can be described thus: MTT growth inhibition assay, 72 h.
The subject of experiment [7] is U87 glioblastoma. The experiment can be described thus: MTT growth inhibition assay, 72 h.
The subject of experiment [8] is Du145 prostate. Description: MTT growth inhibition assay, 72 h. The note with it: for GI50: MTT, 72 h.
Experiment [9] deals with HT29 colon. The experiment can be described thus: MTT growth inhibition assay, 72 h. The note with it: for GI50: MTT, 72 h.
For experiment [10], the system named is MCF-7 breast. Description: MTT growth inhibition assay, 72 h. The note with it: MTT, 72 h.
Experiment [11] concerns BE2-C neuroblastoma. The experiment can be described thus: MTT growth inhibition assay, 72 h.
In experiment [12] the test system is A2780 ovarian. Description: MTT growth inhibition assay, 72 h.
Experiment [13] relates to HT29 colon cells. The experiment can be described thus: ROS detection assay (DCFH-DA fluorescence). The note with it: compounds at GI50 concentration, TBHP and NAC 20 μM. How it is done: HT29 colon cells were stained by DCFH-DA and then treated with the compounds at each specific GI50 concentration. Upon ROS production, the DCFH-DA produced […], a fluorescent product. The measured fluorescence was, therefore, proportional to the produced ROS. […] 56CLB at 24 h reported 395 RFU, 437 RFU at 48 h, and 558 RFU at 72 h (Table 6, Figure 14 and Figure S42), respectively, showing a significant production of ROS in comparison to control cells. 5CLB at 24 h produced 337 RFU, 324 RFU at 48 h, and 376 RFU at 72 h (Table 6, Figure 14 and Figure S42), respectively.
To investigate for the presence of ROS in treated cells, DCFDA/H2DCFDA-cellular ROS Assay Kit (Abcam, Cambridge, MA, USA) was used, as described. A total of 25,000 cells/mL of HT29 cells in DMEM were seeded in 96-well plates. Cells were washed with 1X kit buffer, then stained with 25 μM 2’,7’-dichlorofluorescein diacetate (DCFH-DA) and incubated for 45 min. DCFH-DA was then removed, and cells were then re-washed with 1X kit buffer, after which phenol red free media was added. Cells were then treated with GI50 drug concentration for each complex. The plates were directly scanned to measure fluorescence (relative fluorescence units (RFU)) at different time points using the Glo-Max®-Multimode microplate reader (Promega Corporation, Alexandra, VIC, Australia) at an excitation/emission of 485/535 nm. To generate the positive control (20 μM tert-butyl hydroperoxide (TBHP)), cells were washed with 1X kit buffer, and stained with DCFDA (25 μM) for 45 min. DCFDA was then removed and TBHP was added in phenol red free media. The plate was scanned to measure the RFU at different time points as mentioned above. The same method applies for the negative control treated with 20 μM N-acetylcysteine (NAC).

Experiment [14] relates to non-tumor-derived MCF10A breast line. The experiment can be described thus: MTT growth inhibition assay, 72 h.

On to `O=C1[O][Pt]2([NH][C@@H]3CCCC[C@H]3[NH]2)[O]C1=O` (relative stereo) [Oxaliplatin, trans-L-(1R,2R-diaminocyclohexane) oxalatoplatinum(II), reference compound], for which the 50% growth inhibitory concentration (GI50) in [1] worked out at 800 ± 0.1 nM; in experiment [2], 1600 ± 0.1 nM; in experiment [3], 3000 ± 1.2 nM; in [4] it was 900 ± 0.2 nM; in experiment [5] it was 1463 ± 0.32 nM; in experiment [6] it was 4100 ± 0.5 nM. Moreover, the GI50 came out at 1800 ± 0.2 nM in experiment [7]; 2900 ± 0.4 nM in experiment [8]; 900 ± 0.2 nM in experiment [9]; 500 ± 0.1 nM in experiment [10]; 900 ± 0.2 nM in experiment [11]; 160 ± 0.1 nM in [12]. Further, the “fold more active than CLB” value in [4] was determined as 44 fold.
Regarding `Cc1cc2cccnc2c2ncccc12.N[C@H]1CCCC[C@@H]1N.[Cl][Pt][Cl]` [5MESS, [Pt^II(5-methyl-1,10-phenanthroline)(1S,2S-diaminocyclohexane)]Cl2], the “fold more active than cisplatin” value in [1] is recorded as 800 fold. Moreover, the GI50 turned out to be 34 ± 0.0023 nM in [1]; 41 ± 0.005 nM in experiment [2]; 220 ± 0.01 nM in [3]; 48 ± 0.002 nM in [4]; 117 ± 0.01 nM in experiment [5]; 120 ± 0.025 nM in experiment [6]. The GI50 in [7] came to 320 ± 0.026 nM; in experiment [8], 22 ± 0.0027 nM; in experiment [9], 33 ± 0.0038 nM; in experiment [10] it was 200 ± 0.012 nM; in [11], 270 ± 0.038 nM; in experiment [12], 61 ± 0.01 nM. The 50% growth inhibitory concentration (GI50) in [14] stood at 30 ± 0.0018 nM. Moreover, the figures for the “ROS Production” value in experiment [13] (24 h), in experiment [13] (48 h) and in experiment [13] (72 h) were 204 ± 4 RFU, 205 ± 3 RFU and 188 ± 3 RFU, respectively.
As to `Cc1c(C)c2cccnc2c2ncccc12.N[C@H]1CCCC[C@@H]1N.[Cl][Pt][Cl]` [56MESS, [Pt^II(5,6-dimethyl-1,10-phenanthroline)(1S,2S-diaminocyclohexane)]Cl2], the “fold more active than cisplatin” value in experiment [1] was “more than 2000 fold”. Also, the GI50 in experiment [1] is 13 ± 0.0022 nM; in experiment [2] it was 21 ± 0.0019 nM; in experiment [3], 66 ± 0.022 nM; in experiment [4], 13 ± 0.002 nM; in [5], 40 nM and 36 nM; in experiment [6], 29 ± 0.001 nM. Further, the GI50 in experiment [7] came to 35 ± 0.0064 nM; in experiment [8], 4.6 ± 0.00039 nM; in [9] it was 10 ± 0.0016 nM; in experiment [10], 93 ± 0.044 nM; in experiment [11], 59 ± 0.0041 nM; in experiment [12], 76 ± 0.057 nM. Moreover, the GI50 in experiment [14] worked out at 16 ± 0.0012 nM. The “fold more active than CLB” value in experiment [4] and in experiment [9] (HT29 colon cell line) was approximately 4000 fold each time. The “ROS Production” value in experiment [13] (24 h) is on record as 240 ± 5 RFU; in experiment [13] (48 h), 218 ± 3 RFU; in experiment [13] (72 h), 255 ± 4 RFU. The “fold increase in potency compared to CLB” value in experiment [8] (Du145 prostate cell line) came to 6000 fold.
Take `N.N.O=C([O-])C1(C(=O)[O-])CCC1.[Pt+2]` [Carboplatin, cis-diammine(1,1-cyclobutanedicarboxylato) platinum(II), reference compound]: the concentration for 50% growth inhibition (GI50) was more than 50000 nM in experiment [1]; 14000 nM in experiment [2]; 5700 ± 0.2 nM in experiment [3]; more than 50000 nM in [4]; 32200 nM in experiment [5]; 24000 nM in experiment [6]. Moreover, the GI50 was more than 50000 nM in [7]; 15000 nM in [8]; more than 50000 nM in [9]; more than 50000 nM in experiment [10]; 19000 nM in [11]; 9200 ± 2.9 nM in [12]. This compound displayed a concentration for 50% growth inhibition (GI50) in [14] of more than 50000 nM.
As to `N.N.[Cl][Pt][Cl]` [Cisplatin, cis-diamminedichloroplatinum(II), reference compound], the GI50 in experiment [1] worked out at 28000 nM; in experiment [2], 900 ± 0.2 nM; in experiment [3] it was 400 ± 0.1 nM; in [4] it was 7500 ± 1.3 nM; in [5], 5842 ± 0.61 nM; in [6], 2400 ± 0.3 nM. Moreover, the 50% growth inhibitory concentration (GI50) is 3800 ± 1.1 nM in experiment [7]; 1200 ± 0.1 nM in experiment [8]; 11300 nM in experiment [9]; 6500 ± 0.8 nM in [10]; 1900 ± 0.2 nM in experiment [11]; 1000 ± 0.1 nM in [12]. This compound returned a concentration for 50% growth inhibition (GI50) in experiment [14] of 5200 ± 0.52 nM. The “fold more active than CLB” value in experiment [4] came out at 5 fold. Besides, the “ROS Production” value is on record as 214 ± 9 RFU in experiment [13] (24 h), 214 ± 9 RFU in [13] (48 h) and 200 ± 9 RFU in experiment [13] (72 h).
With `CC(=O)N[C@@H](CS)C(=O)O` [NAC, N-acetylcysteine, reference compound], the “ROS Production” value in experiment [13] (24 h) worked out at 71 ± 2 RFU; in experiment [13] (48 h) it was 85 ± 6 RFU; in experiment [13] (72 h), 91 ± 5 RFU.
For the compound `N[C@H]1CCCC[C@@H]1N.[Cl][Pt][Cl].c1cnc2c(c1)ccc1cccnc12` [PHENSS, [Pt^II(1,10-phenanthroline)(1S,2S-diaminocyclohexane)]Cl2], in experiment [1], the “fold more active than cisplatin” value was 150 fold. In addition, the GI50 amounted to 190 ± 0.047 nM in experiment [1]; 360 ± 0.035 nM in experiment [2]; 330 ± 0.066 nM in experiment [3]; 200 ± 0.057 nM in experiment [4]; 434 ± 0.11 nM in [5]; 480 ± 0.17 nM in experiment [6]. In addition, the GI50 worked out at 980 ± 0.27 nM in experiment [7]; 100 ± 0.038 nM in experiment [8]; 160 ± 0.045 nM in experiment [9]; 1500 ± 0.5 nM in experiment [10]; 380 ± 0.046 nM in experiment [11]; 230 ± 0.03 nM in [12]. In [14], this compound came in with a GI50 of 300 ± 0.058 nM. Further, the “ROS Production” value in [13] (24 h) was 174 ± 2 RFU; in experiment [13] (48 h), 172 ± 9 RFU; in [13] (72 h), 176 ± 7 RFU.
For the compound `CC(C)(C)OO` [TBHP, tert-butyl hydroperoxide, reference compound], the “ROS Production” value in [13] (24 h) is 514 RFU and 514 ± 3 RFU; in [13] (48 h), 336 RFU and 336 ± 2 RFU; in [13] (72 h), 332 RFU and 332 ± 5 RFU.

The record behind these values is paper PMC9499463, “Potent Chlorambucil-Platinum(IV) Prodrugs” (International Journal of Molecular Sciences, 2022).
